Results reported in paper PMC11864979, “First-in-class ultralong-target-residence-time p38α inhibitors as a mitosis-targeted therapy for colorectal cancer” (Nature Cancer, 2025).
“And” between values parts separate entries of the source, which are not always exact repeats. Equal values may be shown once. Read-outs that look alike come from different tables or passages of the source.

Tests used:
KAP^2D cells [1] = test: P-H3^S10 / α-tubulin staining, mitotic phases in KAP^2D cells; format: cell-based, mouse; conditions: replicates, experiment and repetition; for Anaphase, % (of fully P-H3S10+ cells) / Metaphase, % (of fully P-H3S10+ cells) / Multipolar mitosis, % (of fully P-H3S10+ cells) / Telophase, % (of fully P-H3S10+ cells): Fig. 4f; for P-H3S10+ cells, fully positive / P-H3S10+ cells, partially positive: Fig. 4d
Experimental: Immunofluorescence staining on cells and organoids was performed on glass coverslips or tissue culture chambers (Sarstedt). Organoids were plated in medium containing 10% Matrigel or Cultrex BME. The cultures were fixed with 4% paraformaldehyde and stained with specific antibodies and DAPI (Vector Labs). All used antibodies and dilutions are listed in the Nature Portfolio Reporting Summary. For analyzing DNA synthesis, the Molecular Probes Click-iT EdU Alexa Fluor 555 kit was used 24 h after EdU incorporation with DAPI counterstaining. SA-β-Gal staining of cells was performed in cell culture dishes (cells) or tissue culture chambers (organoids) after fixation with 0.5% glutaraldehyde as described above. Human cultures were incubated with X-Gal solution at pH 6.0 for ~4 h. […] Positive cells were quantified using ImageJ version 1.53a software. The analysis of mitosis was performed with an LSM800 Airyscan (Zeiss) microscope (ZEN version 3.0 software). An Airyscan autofilter processing was applied before image analysis.

KMP organoids = test: cell viability in KMP organoids; format: cell-based, mouse
Experimental: (§1) A total of 1,000–2,000 single cells were plated per well in white 96-well plates (Greiner) in culture medium containing 10% GFR Matrigel or Cultrex BME. The treatment with doxycycline (5 µg ml^−1), pharmacological inhibitors or corresponding volumes of DMSO was started 24 h after plating. Doxycycline was obtained from Sigma-Aldrich. […] Results were normalized to vehicle (DMSO) or to shNC. For cell-doubling assays, the cell number was quantified at the corresponding time points using Guava EasyCyte flow cytometer (Luminex, CytoSoft v5.2 software).

KAP^2D cells [2] = test: western blot analysis of p38α signaling in KAP^2D cells; format: cell-based, mouse; conditions: 1 µM, 1 day
Experimental: Proteins were extracted from cells and organoids using radioimmunoprecipitation assay extraction buffer (50 mM Tris pH 8.0, 150 mM NaCl, 1% Triton X-100, 0.5% sodium deoxycholate, 0.1% SDS, 5 mM EDTA and 1 mM EGTA) supplemented with protease and phosphatase inhibitors (cOmplete and PhosSTOP, Roche). Protein concentrations were measured using the DC (detergent compatible) Protein Assay (Bio-Rad). Briefly, 20–30 µg of protein was separated by SDS–PAGE and transferred onto PVDF membranes (Immobilon-P, Millipore). Membranes were blocked in 5% BSA and Tris-buffered saline (TBS)–Tween buffer and then incubated with primary antibodies overnight at 4 °C and with horseradish peroxidase-conjugated secondary antibodies for 1 h at room temperature. All used antibodies and dilutions are listed in the Nature Portfolio Reporting Summary. The blots were visualized using the ChemiDoc MP Imaging System (BIO-RAD) and ImageLab version 5.2.1 software. Vinculin and β-actin were used as loading controls.

PDO1 = test: cell viability in patient-derived CRC organoids PDO1; format: cell-based, human; conditions: Fig. 3b, replicates
Experimental: (§2) For in vitro treatment studies, organoids were mechanically dissociated and digested using TrypLE supplemented with 100 µg ml^−1 DNaseI and 10.5 µM Y-27632 dihydrochloride (Invitrogen) at 37 °C. A total of 1,000–2,000 single cells were plated per well in white 96-well plates (Greiner) in culture medium containing 10% GFR Matrigel or Cultrex BME. The treatment with doxycycline (5 µg ml^−1), pharmacological inhibitors or corresponding volumes of DMSO was started 24 h after plating. Doxycycline was obtained from Sigma-Aldrich. […] Cell viability was measured by means of CellTiter-Glo 3D or CellTiter-Glo 2.0 reagent (Promega) according to the manufacturers’ instructions and the Infinite M Plex reader (Tecan, i-control version 3.9.1 software). Results were normalized to vehicle (DMSO) or to shNC. For cell-doubling assays, the cell number was quantified at the corresponding time points using Guava EasyCyte flow cytometer (Luminex, CytoSoft v5.2 software).

PDO5 = test: cell viability in patient-derived CRC organoids PDO5; format: cell-based, human; conditions: Fig. 3f, replicates
Experimental: as §2

p38α = p38α (Homo sapiens, UniProt Q16539); test: target residence time (TRT) fluorescence polarization jump-dilution assay; format: binding
Experimental: TRTs were determined using a fluorescence polarization assay kit (Transcreener ADP, BellBrook Labs)[29]. […] The formed complex was ‘jump-diluted’ 1:100 (0.5 µl in 49.5 µl) in a 96-half-area-well plate with ATF2 (82 μM), ATP (40 μM) and ADP as the kinase assay detection reagents. The plate was measured every 3 min for 4 h. Fluorescence polarization was detected using the plate reader VictorNivo (PerkinElmer). The data were analyzed using the integrated rate equation in GraphPad Prism version 7.03 software. The residence time was calculated from the reciprocal value of koff.

PDO7 = test: cell viability in patient-derived CRC organoids PDO7; format: cell-based, human
Experimental: as §2

PDO3 = test: cell viability in patient-derived CRC organoids PDO3; format: cell-based, human; conditions: Fig. 3d, replicates
Experimental: as §2

BAP organoids = test: cell viability in BAP organoids; format: cell-based, mouse; conditions: for Cell viability (%): Fig. 2j, replicates
Experimental: as §1

PDO2 = test: cell viability in patient-derived CRC organoids PDO2; format: cell-based, human; conditions: Fig. 3c, replicates
Experimental: as §2

Sequence of p38α (Q16539 whole entry): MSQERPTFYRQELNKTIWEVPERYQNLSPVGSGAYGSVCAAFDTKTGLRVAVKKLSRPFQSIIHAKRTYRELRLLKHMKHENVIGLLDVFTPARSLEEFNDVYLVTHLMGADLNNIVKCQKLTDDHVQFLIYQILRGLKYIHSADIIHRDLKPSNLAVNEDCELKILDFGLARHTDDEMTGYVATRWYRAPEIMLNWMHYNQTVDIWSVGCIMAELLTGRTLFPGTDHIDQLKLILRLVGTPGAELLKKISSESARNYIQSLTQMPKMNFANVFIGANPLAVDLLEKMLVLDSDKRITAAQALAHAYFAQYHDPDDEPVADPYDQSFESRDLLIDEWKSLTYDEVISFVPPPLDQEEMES

O=C(NCCN1CCOCC1)c1ccc2c(c1)C(=O)c1ccc(Nc3ccc(F)c(NC(=O)c4ccccc4)c3)cc1CC2 [Compound 1639]
Anaphase, % (of fully P-H3S10+ cells) (KAP^2D cells [1]): 14.94% and 12.77% and 11.59% and 15.15% and 10.11% and 8.57%
Metaphase, % (of fully P-H3S10+ cells) (KAP^2D cells [1]): 17.24% and 21.28% and 8.70% and 19.70% and 24.72% and 20.00%
Multipolar mitosis, % (of fully P-H3S10+ cells) (KAP^2D cells [1]): 9.20% and 12.77% and 8.70% and 9.09% and 10.11% and 8.57%
Telophase, % (of fully P-H3S10+ cells) (KAP^2D cells [1]): 12.64% and 9.57% and 7.25% and 16.67% and 10.11% and 14.29%
P-H3S10+ cells, fully positive (KAP^2D cells [1]): 5.80% and 5.96% and 4.15% and 4.12% and 5.10% and 3.55%
P-H3S10+ cells, partially positive (KAP^2D cells [1]): 8.66% and 7.86% and 7.71% and 7.49% and 8.02% and 8.52%
therapeutic effect in KMP organoids (in words) (KMP organoids; 4 days): no therapeutic effects
Cell viability (%) (KMP organoids; Fig. 2i, 0,5 µM, replicates, 5 µM): 101.57% and 92.29%
Cell viability (%) (KMP organoids; Fig. 2i, 0,25 µM, replicates): 98.98% and 85.31% and 57.91%
Cell viability (%) (KMP organoids; Fig. 2i, 1 µM, replicates): 98.40% and 93.50%
viability at 5 µM (KMP organoids; Mus musculus, Fig. 2i, 0,5 µM, replicates): 85.5%
viability at 1 µM (KMP organoids; Mus musculus, Fig. 2i, 1 µM, replicates): 105%
MK2^T334 phosphorylation (in words) (KAP^2D cells [2]): reduced MK2^T334 phosphorylation
Cell viability (%) (PDO1; 0.5 µM): 106.52% and 84.18% and 86.35%
Cell viability (%) (PDO1; 1 µM): 70.08% and 65.69%
viability at 1 µM (PDO1; Homo sapiens, 1 µM): 63%
Cell viability (%) (PDO5; 0,5 µM, 5 µM): 95.85% and 89.27%
Cell viability (%) (PDO5; 0,25 µM, 25 µM): 102.83% and 96.93% and 77.02%
Cell viability (%) (PDO5; 1 µM): 104.30% and 89.98% and 81.04%
TRT (p38α; Fig. 2e, replicates): 191.2 s and 188.8 s and 173.0 s
TRT (p38α; reciprocal of koff): 184 s
viability at 1 µM (PDO7; Homo sapiens, 96 h, PDO7, 1 µM, 4 days, read-out: Cell viability (%)): 103%
Cell viability (%) (PDO7; PDO7, 0.5 µM, 4 d, 0.5 µM): 99.28% and 131.17% and 112.30%
Cell viability (%) (PDO7; PDO7, 1 µM, 4 days, 1 µM): 115.94% and 100.13%
Cell viability (%) (PDO3; 0,5 µM, 5 µM): 112.45% and 94.73% and 79.47%
Cell viability (%) (PDO3; 0,25 µM, 25 µM): 111.26% and 82.86% and 90.87%
Cell viability (%) (PDO3; 1 µM): 101.94% and 81.53% and 90.79%
therapeutic effect in BAP organoids (in words) (BAP organoids; 4 days): no therapeutic effects
Cell viability (%) (BAP organoids; 0,5 µM, 5 µM): 89.71% and 139.45% and 151.95%
Cell viability (%) (BAP organoids; 0,25 µM): 99.59% and 127.60% and 118.40%
Cell viability (%) (BAP organoids; 1 µM): 87.55% and 125.47% and 95.41%
Cell viability (%) (PDO2; 0,5 µM, 5 µM): 69.57% and 95.69% and 90.88%
Cell viability (%) (PDO2; 0,25 µM): 93.94% and 86.22% and 63.24%
Cell viability (%) (PDO2; 1 µM): 53.19% and 51.96%
viability at 1 µM (PDO2; Homo sapiens, 1 µM): 68.7%

O=C1c2ccc(Nc3ccc(F)cc3F)cc2CCc2ccc(OC[C@H](O)CO)cc21 [SKL, skepinone-L, reference compound]
Anaphase, % (of fully P-H3S10+ cells) (KAP^2D cells [1]): 10.84% and 8.57% and 15.15% and 12.31% and 9.21% and 11.59%
Metaphase, % (of fully P-H3S10+ cells) (KAP^2D cells [1]): 25.30% and 20.00% and 30.30% and 29.23% and 25.00% and 27.54%
Multipolar mitosis, % (of fully P-H3S10+ cells) (KAP^2D cells [1]): 3.61% and 2.86% and 6.06% and 3.08% and 3.95% and 8.70%
Telophase, % (of fully P-H3S10+ cells) (KAP^2D cells [1]): 8.43% and 9.52% and 12.12% and 10.77% and 13.16% and 15.94%
P-H3S10+ cells, fully positive (KAP^2D cells [1]): 4.75% and 6.25% and 2.15% and 4.12% and 5.03% and 3.69%
P-H3S10+ cells, partially positive (KAP^2D cells [1]): 6.47% and 7.85% and 5.54% and 6.84% and 8.15%
TRT (p38α; Fig. 2e, replicates): 88.3 s and 94.8 s and 81.2 s
TRT (p38α; reciprocal of koff): 88 s
viability at 0.5 µM (PDO7; Homo sapiens, 96 h, read-out: Cell viability (%), PDO7, 0.5 µM, 4 d): 82.8%
viability at 1 µM (PDO7; Homo sapiens, 96 h, read-out: Cell viability (%), PDO7, 1 µM, 4 days): 96.8%
Cell viability (%) (PDO7; PDO7, 0.5 µM, 4 d, 0.5 µM): 101.04% and 90.15%
Cell viability (%) (PDO7; PDO7, 1 µM, 4 days, 1 µM): 99.67% and 101.17%
